Experiments:
[1] = target: human IRAK4 FL (Full Length) (Homo sapiens (Human), UniProt Q9NWZ3); assay: IRAK4 Enzymatic DELFIA Assay, Protocol A; assay type: biochemical; details: human IRAK4 FL, 0.6 mM ATP (KM); read-out: IRAK4 DELFIA Protocol A IC50
[2] = target: human IRAK4 kinase domain (aa 154-460) (Homo sapiens (Human), UniProt Q9NWZ3); assay: IRAK4 Enzymatic DELFIA Assay, Protocol B; assay type: biochemical; details: human IRAK4 kinase domain (aa 154-460), 0.6 mM ATP (KM); read-out: IRAK4 DELFIA Protocol B IC50
Chain of human IRAK4 kinase domain (aa 154-460) (Q9NWZ3 154-460): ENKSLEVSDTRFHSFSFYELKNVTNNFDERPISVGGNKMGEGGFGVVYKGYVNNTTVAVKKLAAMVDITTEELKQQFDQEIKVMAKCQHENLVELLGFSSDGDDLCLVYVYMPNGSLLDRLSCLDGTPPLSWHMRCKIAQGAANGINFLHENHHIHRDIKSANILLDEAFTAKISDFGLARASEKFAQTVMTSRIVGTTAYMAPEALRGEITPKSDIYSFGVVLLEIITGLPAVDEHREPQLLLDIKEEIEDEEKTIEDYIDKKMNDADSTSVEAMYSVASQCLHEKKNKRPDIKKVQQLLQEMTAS
Text: IRAK4 Enzymatic DELFIA Assay, Protocol B.

[3] = test system: R848-induced TNFα production by human peripheral blood mononuclear cells (PBMCs); assay: R848 Induced TNFα in Human PBMC Assay; assay type: cell-based; details: Homo sapiens, PBMC, 3 h, read-out: R848-induced TNFa PBMC IC50 (nM)
Text: R848 Induced TNFα in Human PBMC Assay.
This protocol is for R848-induced TNFα production by human peripheral blood mononuclear cells (PBMCs). […] The assay is used to assess cell-based potency of small molecule inhibitors of IRAK4 in the absence of serum.
The PBMCs in the interphase layer were collected and washed with PBS via centrifugation multiple times until the supernatant is clear. The purified PBMCs were re-suspended in RPMI (Roswell Park Memorial Institute) media (Sigma-Aldrich).
For the assay, a compound dilution plate containing a top concentration of 4 mM compound in DMSO was serially diluted 4-fold for 11 times. 250 nL of the compound dilution plate was spotted into a 384-well, flat bottom with lid, TC-treated, black with clear bottom, sterile, polystyrene plate (Corning Life Sciences).
10 μL of anti-TNFα antibody labeled with MSD SULFO-TAG at 50 μg/mL was added to each well and allowed to incubate overnight at 4° C.

Chain of human IRAK4 FL (Full Length) (Q9NWZ3 whole entry, the tested form may be a part): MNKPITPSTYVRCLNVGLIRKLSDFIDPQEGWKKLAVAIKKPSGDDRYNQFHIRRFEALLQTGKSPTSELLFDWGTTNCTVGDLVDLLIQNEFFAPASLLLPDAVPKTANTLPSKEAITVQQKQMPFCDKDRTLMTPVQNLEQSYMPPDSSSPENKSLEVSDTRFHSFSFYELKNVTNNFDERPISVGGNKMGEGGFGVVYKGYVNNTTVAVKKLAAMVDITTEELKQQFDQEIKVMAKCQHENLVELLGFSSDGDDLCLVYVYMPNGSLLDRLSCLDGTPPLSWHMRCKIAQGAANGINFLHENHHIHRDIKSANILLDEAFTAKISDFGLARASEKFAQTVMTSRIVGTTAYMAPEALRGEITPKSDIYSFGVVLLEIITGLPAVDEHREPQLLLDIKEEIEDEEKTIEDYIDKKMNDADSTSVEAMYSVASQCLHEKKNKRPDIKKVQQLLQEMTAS

## CC(C)Oc1cc2c(OC[C@@H]3CCN3C(=O)CC#N)nccc2cc1C(N)=O [Example 73, 1-{[(2S)-1-(cyanoacetyl)azetidin-2-yl]methoxy}-7-(propan-2-yloxy)isoquinoline-6-carboxamide]
[1]
  IC50: 4360 nM
[2]
  IC50: 1160 nM
[3]
  IC50: 1590 nM

## CC(C)Oc1cc2c(OC[C@@H]3CN(C(=O)CC#N)CCO3)ccnc2cc1C(N)=O [Example 98, 4-{[(2S)-4-(cyanoacetyl)morpholin-2-yl]methoxy}-6-(propan-2-yloxy)quinoline-7-carboxamide]
[2]
  IC50: 575 nM

## CC(C)Oc1cc2c(OCC3COC3)ccnc2cc1C(N)=O [Example 6, 4-(oxetan-3-ylmethoxy)-6-(propan-2-yloxy)quinoline-7-carboxamide]
[2]
  IC50: 618 nM

## CC(C)Oc1cc2c(OCC3(F)CCNCC3)ccnc2cc1C(N)=O [Example 54, 4-[(4-fluoropiperidin-4-yl)methoxy]-6-(propan-2-yloxy)quinoline-7-carboxamide]
[2]
  IC50: 2440 nM

## CC(C)Oc1cc2c(OCC3CCN(C(=O)CC#N)CC3)nccc2cc1C(N)=O [Example 62, 1-{[1-(cyanoacetyl)piperidin-4-yl]methoxy}-7-(propan-2-yloxy)isoquinoline-6-carboxamide]
[2]
  IC50: 1290 nM

## CC(C)Oc1cc2c(OCC3COCO3)ccnc2cc1C(N)=O (centres unmarked) [Example 18, 4-(1,3-dioxolan-4-ylmethoxy)-6-(propan-2-yloxy)quinoline-7-carboxamide]
[2]
  IC50: 507 nM

## CC(C)Oc1cc2c(OC[C@@H]3CC(CO)C(=O)N3)nccc2cc1C(N)=O (stereo partly drawn) [Example 148, 1-{[(2S)-4-(hydroxymethyl)-5-oxopyrrolidin-2-yl]methoxy}-7-(propan-2-yloxy)isoquinoline-6-carboxamide]
[2]
  IC50: 24 nM

## CC(C)Oc1cc2c(OC[C@@]34CNC[C@@H]3C4)nccc2cc1C(N)=O [Example 140, 1-[(1R,5R)-3-azabicyclo[3.1.0]hex-1-ylmethoxy]-7-(propan-2-yloxy)isoquinoline-6-carboxamide]
[2]
  IC50: 84 nM

## CC(C)Oc1cc2c(OC[C@@H]3CCCN3C)nccc2cc1C(N)=O [Example 31, 1-{[(2S)-1-methylpyrrolidin-2-yl]methoxy}-7-(propan-2-yloxy)isoquinoline-6-carboxamide]
[2]
  IC50: 2620 nM

## CC(C)Oc1cc2c(OCC3CNC3)ccnc2cc1C(N)=O [Example 1, 4-(azetidin-3-ylmethoxy)-6-(propan-2-yloxy)quinoline-7-carboxamide]
[2]
  IC50: 2910 nM

## CC(C)Oc1cc2c(OC[C@@H]3COCCN3C(=O)CC#N)nccc2cc1C(N)=O [Example 83, 1-{[(3S)-4-(cyanoacetyl)morpholin-3-yl]methoxy}-7-(propan-2-yloxy)isoquinoline-6-carboxamide]
[2]
  IC50: 175 nM

## CC(C)Oc1cc2c(OC[C@@H]3COCCN3)nccc2cc1C(N)=O [Example 160, 1-[(3S)-morpholin-3-ylmethoxy]-7-(propan-2-yloxy)isoquinoline-6-carboxamide]
[2]
  IC50: 151 nM

## CC(C)Oc1cc2c(OCC3CCCCO3)nccc2cc1C(N)=O (centres unmarked) [Example 25, 7-(propan-2-yloxy)-1-(tetrahydro-2H-pyran-2-ylmethoxy)isoquinoline-6-carboxamide]
[2]
  IC50: 1130 nM

## CC(C)Oc1cc2c(OCC3CCCC3)ccnc2cc1C(N)=O [Example 7, 4-(cyclopentylmethoxy)-6-(propan-2-yloxy)quinoline-7-carboxamide]
[2]
  IC50: 170 nM

## CC(C)Oc1cc2c(OC[C@@]34C[C@@H]3CN(C(=O)CC#N)C4)ccnc2cc1C(N)=O [Example 94, 4-{[(1S,5S)-3-(cyanoacetyl)-3-azabicyclo[3.1.0]hex-1-yl]methoxy}-6-(propan-2-yloxy)quinoline-7-carboxamide]
[2]
  IC50: 526 nM

## CC(C)Oc1cc2c(O[C@@H]3CC4CC[C@H]3C4)ccnc2cc1C(N)=O [Example 19, 4-[(1S,2R)-bicyclo[2.2.1]hept-2-yloxy]-6-(propan-2-yloxy)quinoline-7-carboxamide]
[2]
  IC50: 354 nM

## CC(C)Oc1cc2c(OCC3CCCN3)nccc2cc1C(N)=O (centres unmarked) [Example 159, 7-(propan-2-yloxy)-1-(pyrrolidin-2-ylmethoxy)isoquinoline-6-carboxamide]
[2]
  IC50: 3380 nM

## CC(C)Oc1cc2c(O[C@@H]3C[C@H]4C[C@@H]3CN(C(=O)CC#N)C4)nccc2cc1C(N)=O [Example 68, 1-{[(1R,5R,6R)-3-(cyanoacetyl)-3-azabicyclo[3.2.1]oct-6-yl]oxy}-7-(propan-2-yloxy)isoquinoline-6-carboxamide]
[2]
  IC50: 320 nM

## CC(C)Oc1cc2c(O[C@@H]3C[C@@H]4CN[C@H]3C4)nccc2cc1C(N)=O [Example 108, 1-[(1S,4R,6R)-2-azabicyclo[2.2.1]hept-6-yloxy]-7-(propan-2-yloxy)isoquinoline-6-carboxamide]
[2]
  IC50: 1870 nM

## CC(C)Oc1cc2c(OCC3CCNCC3)ccnc2cc1C(N)=O [Example 4, 4-(piperidin-4-ylmethoxy)-6-(propan-2-yloxy)quinoline-7-carboxamide]
[2]
  IC50: 913 nM

## CC(C)Oc1cc2c(OC[C@H]3CN(C(=O)CC#N)C[C@@H]3C)nccc2cc1C(N)=O [Example 85, 1-{[(3R,4R)-1-(cyanoacetyl)-4-methylpyrrolidin-3-yl]methoxy}-7-(propan-2-yloxy)isoquinoline-6-carboxamide]
[2]
  IC50: 610 nM

## CC(C)Oc1cc2c(OCC3CCCCN3C(=O)CC#N)ccnc2cc1C(N)=O (centres unmarked) [Example 99, 4-{[1-(cyanoacetyl)piperidin-2-yl]methoxy}-6-(propan-2-yloxy)quinoline-7-carboxamide]
[2]
  IC50: 524 nM

## CC(C)Oc1cc2c(OC[C@@H]3CCN(C(=O)CC#N)C3)nccc2cc1C(N)=O [Example 70, 1-{[(3R)-1-(cyanoacetyl)pyrrolidin-3-yl]methoxy}-7-(propan-2-yloxy)isoquinoline-6-carboxamide]
[2]
  IC50: 423 nM

## CC(C)Oc1cc2c(OC[C@@H]3CN(C(=O)CC#N)CCO3)nccc2cc1C(N)=O [Example 75, 1-{[(2S)-4-(cyanoacetyl)morpholin-2-yl]methoxy}-7-(propan-2-yloxy)isoquinoline-6-carboxamide]
[2]
  IC50: 4040 nM

## CC(C)Oc1cc2c(O[C@@H]3CC[C@H]4CC(=O)N[C@H]43)nccc2cc1C(N)=O [Example 130, 1-{[(3aS,6R,6aR)-2-oxooctahydrocyclopenta[b]pyrrol-6-yl]oxy}-7-(propan-2-yloxy)isoquinoline-6-carboxamide]
[2]
  IC50: 417 nM

## CC(C)Oc1cc2c(OCC3CCCO3)ccnc2cc1C(N)=O (centres unmarked) [Example 11, 6-(propan-2-yloxy)-4-(tetrahydrofuran-2-ylmethoxy)quinoline-7-carboxamide]
[2]
  IC50: 3230 nM

## CC(C)Oc1cc2c(OCC3(NC(=O)CC#N)CCCC3)nccc2cc1C(N)=O [Example 65, 1-({1-[(cyanoacetyl)amino]cyclopentyl}methoxy)-7-(propan-2-yloxy)isoquinoline-6-carboxamide]
[2]
  IC50: 563 nM

— patent US10329302B2, “Bicyclic-fused heteroaryl or aryl compounds” (Pfizer Inc., priority 2014, dated 2019)
